This is an account of results in the METLIN SMRT retention time set (Domingo-Almenara et al. 2019).

The nature of this data set: gradient 5% acetonitrile 3 min, to 50% in 2 min, to 85% in 15 min, held 3 min, 100 µL/min. The note with it: column: Zorbax Extend-C18 2.1 x 50 mm; eluents: water / acetonitrile, 0.1% formic acid. In outline: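 Over 3 months, pure standards in mixtures of ~100 molecules were run by HPLC coupled to a quadrupole time-of-flight mass spectrometer in positive and negative ionization mode. The column was a Zorbax Extend-C18 (2.1 × 50 mm, 1.8 μm) at 100 μL/min, eluted with water and acetonitrile each holding 0.1% formic acid, with 40 μL dead and 900 μL dwell volumes. Retention time was determined from adduct peaks chosen by software and checked manually.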
`Cc1ccc(C(=O)NCc2ccc3c(c2)ncn3C)s1`: the RP-LC retention time turned out to be 604 s.
`CCc1nc(-c2cccc(-c3noc(CNC(=O)Cc4ccccc4)n3)c2)cs1` came in with an RP-LC retention time of 1000 s.
Take `COc1ccc(-c2nc(-c3ccc4ncn(C)c4c3)no2)cc1`: the RP-LC retention time stood at 732 s.
The result for `CCC(C)Nc1nc2c(c(=O)n(C)c(=O)n2C)n1C` (centres undefined) reads 742 s; that for `CCn1cc(-c2nc(CC(=O)Nc3cccc(Cl)c3)cs2)c2cccnc21`, 942 s; that for `CCOc1ccccc1C1NC(=O)N(CC(=O)NC2CCCCC2)C2=C1C(=O)OC2` (centres undefined), 722 s.
The result for `CCOc1ccccc1CNC(=O)c1nnc(-c2ccc(S(=O)(=O)N(C)C)cc2)o1` reads 945 s.
As for `CCc1ccc(N2C(C)=NS(=O)(=O)c3cccnc32)cc1`, the RP-LC retention time was 874 s.
As for `O=C(NCc1cccnc1)C1CC(=O)N(CCc2c[nH]c3ccc(Cl)cc23)C1` (centres undefined), the figure is 613 s.
Compound `COc1ccc(OC)c(-c2ccc(=O)n(CCNC(=O)C(C)Oc3ccccc3F)n2)c1` (centres undefined) came in with an RP-LC retention time of 754 s.
As for `CCOc1ccccc1-c1noc(Cn2c(=O)n(Cc3ccccc3)c(=O)c3sccc32)n1`, the figure is 1090 s; as for `CCN1CCn2c(nc3cc(C(=O)NCc4ccc(C(F)(F)F)cc4)ccc32)C1=O`, 741 s.
As for `CCc1nc(-c2cccc(-c3noc(CNS(=O)(=O)c4ccccc4)n3)c2)cs1`, the RP-LC retention time came to 1070 s.
`Cc1ccc2nc(-c3ccc(C)c(NC(=O)c4cccs4)c3)[nH]c2c1` had an RP-LC retention time of 681 s.
`CC(=O)Nc1cc(C(=O)NCCN(C)C)ccc1Sc1ccc(Cl)cc1` returned an RP-LC retention time of 589 s.
For `CCOc1ccccc1NC(=O)CSc1nnc(-c2cccnc2)o1`, the RP-LC retention time amounted to 730 s.
`CCOc1ccccc1NC(=O)N1CCN(CCn2c(C(C)C)nc3cccnc32)CC1` registered an RP-LC retention time of 617 s.
`Cc1ccc(-c2ccc(-n3nc(C)c(S(=O)(=O)N4CCN(C(C)C)CC4)c3C)nn2)cc1C` gave an RP-LC retention time of 785 s.
Turning to `COCc1cc2nn(CC(=O)Nc3ccccc3F)c(=O)n2c(-c2ccccc2)n1`, the RP-LC retention time was determined as 795 s.
`CC1CCN(S(=O)(=O)c2ccc3nn(Cc4cccc(C#N)c4)c(=O)n3c2)CC1` registered an RP-LC retention time of 768 s.
The compound `Cc1nccn1CCNC(=O)C(=O)Nc1ccc(OC(F)(F)F)cc1` yielded an RP-LC retention time of 580 s.
Turning to `Cc1sc2ncnc(N3CCCC(C)C3)c2c1C(=O)Nc1cc(F)c(F)cc1F` (centres undefined), the RP-LC retention time amounted to 858 s.
Compound `CC(C)[C@H](NC(=O)CNC(=O)OC(C)(C)C)C(=O)N[C@H](C=O)C(C)C` yielded an RP-LC retention time of 749 s.
Take `O=S(=O)(c1ccc2nncn2c1)N(Cc1cc(F)cc(F)c1)c1cc(F)cc(F)c1`: the RP-LC retention time worked out at 910 s.
For the compound `CC1CCCN(CC2CCN(S(=O)(=O)Cc3ccccc3F)CC2)C1` (centres undefined), the RP-LC retention time was determined as 650 s.
The result for `CCCn1c(=O)c(-c2ccc(C(=O)NC(C)C)cc2)nc2ccccc21` reads 915 s; that for `COc1cc(-c2cccc(Cl)c2)nc2ccc(NC(C)=O)cc12`, 668 s.
As for `O=C(Nc1cccc(C(F)(F)F)c1)c1cnc(-c2ccccc2)nc1-c1ccncc1`, the figure is 859 s.
Turning to `Cc1sc(-c2noc(C3CC3)n2)cc1S(=O)(=O)N1CCC(C(=O)N2CCOCC2)CC1`, the RP-LC retention time amounted to 853 s.
The result for `Cc1ccc(C)c(NC(=O)NCC2CCOCC2)c1` reads 705 s; that for `Cc1c(C(=O)NCCCn2ncccc2=O)nnn1-c1nccs1`, 630 s; that for `O=C(Nc1nc2ccc([N+](=O)[O-])cc2s1)c1ccc(Br)s1`, 1040 s.
The result for `COc1ccc(-c2noc(Cc3nnc(-c4ccc(C)c(C)c4)o3)n2)cc1OC` reads 997 s; that for `CC(=O)Nc1nsc(N2CCC(C(=O)NCc3ccc4c(c3)OCO4)CC2)n1`, 641 s; that for `CCc1cc(C2CCCN2C(=O)Cc2ccccc2F)on1` (centres undefined), 777 s.
On to `CCCCc1cc(=O)oc2cc(C)cc(OC(C)C(=O)N3CCC4(O)CCCCC4C3)c12` (centres undefined), for which the RP-LC retention time is 952 s.
`CC(=O)Nc1ccc(SCCCC(=O)N2CCc3ccccc32)nn1`: the RP-LC retention time worked out at 706 s.
As for `CC(C)c1ccc(NC(=O)C2CCN(C(=O)c3ncn4c3COC(c3ccccc3)C4)CC2)cc1` (centres undefined), the figure is 914 s; as for `CCOc1ccccc1NC(=O)Cn1c(-c2ccccc2)nc(CC)cc1=O`, 1320 s; as for `COc1cc(NC(=O)Cn2ccc3sc(C)cc3c2=O)cc(OC)c1`, 795 s.
On to `CCc1ccc(NS(=O)(=O)c2c(C)sc(C)c2-c2n[nH]c(C)c2C)cc1`, for which the RP-LC retention time is 1200 s.
Take `CS(=O)(=O)N1CCC(OC2CCN(C(=O)c3cccnc3)CC2)CC1`: the RP-LC retention time was found to be 583 s.
Compound `CCc1onc(C)c1C1CCCN1C(=O)Nc1ccccc1OC` (centres undefined) showed an RP-LC retention time of 825 s.
Compound `O=C(Cn1nc(S(=O)(=O)c2ccccc2)ccc1=O)N1CCN(c2ccccc2F)CC1` had an RP-LC retention time of 870 s.
For the compound `Cc1ccccc1-c1nnc(CSc2nnc(NC(=O)c3cccs3)s2)o1`, the RP-LC retention time was 908 s.
As for `CSc1ccc(NC(=O)NC2CCN(c3ccc(C)c(C)c3)C2=O)cc1` (centres undefined), the figure is 897 s; as for `CCc1nn(C)c(=O)c2cc(S(=O)(=O)N3CCC(Cc4ccccc4)CC3)cn12`, 1050 s; as for `OC(c1cc(C(F)(F)F)nc2c(Cl)cc(Cl)cc12)C1CCCCN1` (centres undefined), 786 s.
On to `CCC(C)N(CCNC(=O)Cn1c(=O)oc2ccccc21)Cc1cccs1` (centres undefined), for which the RP-LC retention time is 652 s.
Take `COc1ccc(-c2noc(-c3cccn3CC(=O)NCc3ccco3)n2)cc1F`: the RP-LC retention time came out at 984 s.
The result for `CCCS(=O)(=O)N1CCC(c2nc(CCOc3ccc(F)cc3)no2)C1` (centres undefined) reads 894 s; that for `COc1ccccc1OCC(=O)N(Cc1ccc(N(C)C)cc1)C1CCS(=O)(=O)C1` (centres undefined), 611 s.
Take `COc1cccc(N2CCN(c3ccnc(SCC(=O)NCc4ccccc4Cl)n3)CC2)c1`: the RP-LC retention time was found to be 788 s.
As for `O=C(N[C@H]1C[C@@H]2C[C@H]1N(C(=O)c1ccccc1OC(F)(F)F)C2)c1cccnc1`, the RP-LC retention time was found to be 641 s.
The result for `O=C(Nc1cnc(N2CCOCC2)nc1)c1ccc(F)c(Cl)c1` reads 820 s.
In the case of `O=C(Nc1ccc2c(c1)OCCO2)N1CCC(Cc2nncn2-c2ccccc2)CC1`, the RP-LC retention time amounted to 706 s.
As for `O=C(CN1CCOCC1)Nc1ccc(Br)cc1`, the figure is 556 s.
`COc1ccc(-c2nnc(-c3cccnc3NCc3ccc(N(C)C)cc3)o2)cc1`: the RP-LC retention time was 873 s.
Take `COc1ccc(OC)c(NC(=O)c2cc3c(=O)n(CC(C)C)c4ccccc4n3n2)c1`: the RP-LC retention time came out at 1240 s.
As for `CCN(C(=O)Cn1nc(C(=O)N2CCCCC2)c2ccccc21)c1cccc(C)c1`, the figure is 1010 s; as for `O=C(c1nnc(-c2ccc(S(=O)(=O)N3CCOCC3)cc2)o1)N1CCCCCC1`, 862 s; as for `CCCn1cc(CCNC(=O)c2cccc(Cl)c2)c2cccnc21`, 812 s.
With `CC(CN1CC(=O)NC(=O)C1)N1CC(=O)NC(=O)C1` (centres undefined), the RP-LC retention time turned out to be 530 s.
`COc1cccc(CNC(=O)N2CCc3nc(-c4ccccc4)sc3C2)c1` displayed an RP-LC retention time of 891 s.
In the case of `COc1cccc2c(Nc3ccccc3)cc(C(=O)N3CCSCC3)nc12`, the RP-LC retention time was found to be 656 s.
As for `O=C(Cn1c(=O)c2nncn2c2ncccc21)NCc1cc(F)ccc1F`, the RP-LC retention time amounted to 654 s.
The compound `COCCn1cc(CCNC(=O)Nc2cccc(C)c2C)c2cccnc21` came in with an RP-LC retention time of 721 s.
In the case of `O=C(NCCCN1CCc2ccccc2C1)c1nnc(-c2ccc(S(=O)(=O)N3CCCC3)cc2)o1`, the RP-LC retention time is 680 s.
Take `CC(=O)Nc1nc(-c2ccc(F)c(F)c2)cs1`: the RP-LC retention time was 766 s.
For `CCOC(=O)c1oc2ccc(S(=O)(=O)N3CCCC(c4nn[nH]n4)C3)cc2c1C` (centres undefined), the RP-LC retention time is 822 s.
The compound `CCOc1ccc(CC(=O)NC2CCN(c3cc(-c4ccc(Cl)cc4)[nH]n3)C2)cc1OCC` (centres undefined) showed an RP-LC retention time of 803 s.
`CC1CCN(CCNC(=O)c2nc(CCS(=O)(=O)c3ccccc3)no2)CC1` registered an RP-LC retention time of 635 s.
As for `Cc1ccc(NS(=O)(=O)c2cc3n(c2)CCCNC3=O)cc1F`, the figure is 669 s; as for `CCCCc1nnc(NC(=O)C2CCN(C(=O)c3ccc(Cl)cc3)CC2)s1`, 852 s; as for `CSc1ccc(CNC(=O)Cn2c(=O)cc(-c3nc(C4CC4)no3)c3ccccc32)cc1`, 962 s.
The result for `COc1ccccc1N1CCN(C(=O)c2cc(S(=O)(=O)N3CCCCC3)cn2C)CC1` reads 893 s; that for `COc1ccc(-c2noc(-c3nnn4c3COC(c3ccc(C)cc3C)C4)n2)cc1OC` (centres undefined), 1190 s; that for `CCn1c(=O)n(CC)c2cc(N3CCCC3)c(NC(=O)NCc3ccc(OC)cc3)cc21`, 643 s.
As for `CC(C)(C)c1ccc2oc(CN3CCN(C(=O)NCc4ccccc4)CC3)nc2c1`, the figure is 842 s.
